In PMC9029893 (International Journal of Molecular Sciences, 2022):

Key:
[1] = test system: HUVEC cells; test: Glucose utilization assay (2-NBDG uptake); assay type: cell-based, human; conditions: 24 h, then insulin and 2-NBDG
Experimental: HUVEC were seeded at a density of 20,000 cells per well in 48-well plates, and were cultured in standard conditions for 24 h (medium EGM-2; volume 0.2 mL). Following this, compounds 1–8 were added at concentrations of 0.1 and 0.3 mM, and the HUVECs were incubated for another 24 h. Cells treated with ᴅ-glucose (final concentration in a sample 0.1 mM) were used as positive controls. On the following day, the cells were rinsed with PBS (Biomed Lublin, Lublin, Poland) and cultured for two hours in glucose-free DMEM medium supplemented with 1% BSA (bovine serum albumin, Sigma, St. Louis, MO, USA). Then, the cells were co-treated with insulin (final concentration 0.0001 mM) for 30 min. Afterwards, the medium was discarded and the cells were treated with 2-NBDG (final concentration 0.05 mM) for 30 min, followed by removal of the solutions of each well. The cells were washed twice with 100 µL PBS, and lysed using 1% Triton X-100 solution in PBS. The fluorescence was recorded using a microplate reader (Biotek, Instruments, Winooski, VT, USA) at 480/530 nm.
The concentration of intracellular 2-NBDG was calculated using a calibration curve obtained using 2-NBDG at concentrations ranging from 0.0001 to 0.025 mM in lysis buffer. The results are presented as mean ± SD, n = 4–6. The coefficient of variation for the assay was calculated (CV = 2.2%, n = 8).

[2] = test system: HUVEC cells; test: HUVEC migration, wound-healing assay (JuLI Stage); assay type: cell-based, human
Experimental: The effects of compounds 1–5 on HUVEC migration were determined using the JuLI™ Stage system (NanoEntek, Seoul, Korea): a real-time cell history recorder allowing for live cell imaging and analysis. The procedure for the migration experiments has been published elsewhere in more detail. Concisely, HUVECs were seeded at a density of 10,000 cells per well on 96-well plates and incubated at standard conditions for 24 h. Following this, a wound was made with a scratcher (NanoEntek, Seoul, Korea). The cells were then rinsed with 100 μL of fresh EGM2 medium, and treated with biguanides 1–5 at the concentrations of 0.3 and 1.0 mM. The cells were incubated and monitored continuously every 10 min for 36 h at 37 °C, 5% CO2. Analysis of obtained images of cell migration, and measurements of the width of the scratch area were performed using dedicated software (NanoEntek, Seoul, Korea). The results were presented as mean ± SD, n = 4–8. The CV for the method was estimated as 14.2–24.4%, depending on the time point (n = 8).

[3] = test system: HUVEC cells; test: HUVEC integrity in RTCA-DP system (normalized cell index); assay type: cell-based, human
Experimental: The effects of sulfonamides 1–8 on the integrity and barrier properties of HUVEC were examined in real-time using a cell electric impedance monitoring system (Real-Time Cell Analyzer; Roche & ACEA Biosciences, Santa Clara, CA, USA), which is based on tracking electrical impedance signals. Any changes in cell status, adhesion, and morphology are expressed by parameter Cell Index (CI). The experimental protocol has been described previously. Briefly, the cells were seeded at a density of 15,000 cells per well on E-16 plates (Roche & ACEA Biosciences, Santa Clara, CA, USA), and cultured until the cells achieved plateau phase. Then, the medium was discarded from each well, and the solutions of the test compounds dissolved in cell culturing medium (100 μL) or pure medium (100 μL, control) were added. The measurements were then carried out for 48 h. The results are presented as mean ± SD of ‘normalized cell index’ (nCI), which is calculated by the division of a CI value at a certain time point by the CI value at a reference time point. The experiments were conducted in multiplicate (n = 4–6). The method was validated and the coefficient of variability (CV) was calculated as 9.17%–15.2%, depending on the measured time point (n = 6).

[4] = target: antithrombin III (AT) (Homo sapiens, UniProt P01008); test: Activity of antithrombin III (AT); assay type: biochemical
Experimental: The activity of AT in human plasma was estimated spectrophotometrically using a diagnostic laboratory method. […] In the control samples, 10 μL of distilled water and methanol (1:1) was used. The reaction was initiated by the addition of a chromogenic substrate dissolved in water for injection; as a result, p-nitroaniline was released proportionally to the level of AT. The evaluation of AT level was performed on the basis of a calibration curve performed on calibrator diluted in the range 1:30–1:120 (λ = 405 nm) by the coagulometer program (CoagChrom-3003 Bio Ksel, Grudziadz, Poland). The coefficient of variability for the method (CV) was 2.69%, and the reference range was 80%–130%.

[5] = test system: coagulation in human citrate plasma; test: Coagulation assay (endogenous thrombin generation); assay type: biochemical
Experimental: These reagents induce a feedback reaction leading to the generation of endogenous thrombin, and coagulation. The other experimental conditions were the same as for the CL-test (Section 4.12).
The obtained curves were analyzed using dedicated software that estimates the following parameters: TGt—thrombin generation time (s), Fmax—maximum clotting (%T), Tf—plasma clotting time (s), Fvo—initial plasma clotting velocity (%T/min), Sf—area under the clot formation curve (%Txmin), Tc—clot stabilization time (s), S—area under the curve of coagulation (%Txmin).

antithrombin III (AT), sequence (P01008 33-464): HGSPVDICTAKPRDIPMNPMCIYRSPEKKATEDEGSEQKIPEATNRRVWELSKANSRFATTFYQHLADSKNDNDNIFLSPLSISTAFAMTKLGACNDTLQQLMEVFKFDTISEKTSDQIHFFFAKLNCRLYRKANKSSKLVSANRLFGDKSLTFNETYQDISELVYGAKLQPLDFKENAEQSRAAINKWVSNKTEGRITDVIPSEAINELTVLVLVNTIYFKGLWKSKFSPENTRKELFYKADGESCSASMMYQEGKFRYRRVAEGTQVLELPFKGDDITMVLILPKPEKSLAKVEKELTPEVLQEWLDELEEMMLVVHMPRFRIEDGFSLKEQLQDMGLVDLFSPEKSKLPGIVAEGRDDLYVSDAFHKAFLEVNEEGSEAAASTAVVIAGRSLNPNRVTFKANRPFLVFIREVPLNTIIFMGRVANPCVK

CN(C)C(=N)N=C(N)NS(=O)(=O)C1CCCCC1 [Compound 3]
Glucose uptake (intracellular 2-NBDG) ([1]; 0.1 mM): 0.0137 ± 0.0003 mM
Glucose uptake (intracellular 2-NBDG) ([1]; 0.3 mM): 0.0144 ± 0.0005 mM
wound width ([2]; 0.3 mM, 6 hours): 606.7 ± 149.4 µm
wound width ([2]; 0.3 mM, 12 hours): 486.0 ± 131.2 µm
wound width ([2]; 0.3 mM, 18 hours): 441.9 ± 99.5 µm
wound width ([2]; 0.3 mM, 24 hours): 395.9 ± 104.7 µm
wound width ([2]; 0.3 mM, Start): 675.1 ± 94.6 µm
wound width ([2]; 1.0 mM, 6 hours): 494.6 ± 106.9 µm
wound width ([2]; 1.0 mM, 12 hours): 414.1 ± 103.5 µm
wound width ([2]; 1.0 mM, 18 hours): 385.2 ± 94.5 µm
wound width ([2]; 1.0 mM, 24 hours): 331.3 ± 62.5 µm
wound width ([2]; 1.0 mM, Start): 609.3 ± 73.0 µm
normalized Cell Index (nCI) ([3]; 0.3 mM, 3 hours): 0.680 ± 0.083
normalized Cell Index (nCI) ([3]; 0.3 mM, 6 hours): 0.837 ± 0.213
normalized Cell Index (nCI) ([3]; 0.3 mM, 12 hours): 0.927 ± 0.212
normalized Cell Index (nCI) ([3]; 0.3 mM, 24 hours): 0.969 ± 0.156
normalized Cell Index (nCI) ([3]; 0.3 mM, 36 hours): 0.714 ± 0.035
normalized Cell Index (nCI) ([3]; 1.0 mM, 3 hours): 0.233 ± 0.039
normalized Cell Index (nCI) ([3]; 1.0 mM, 6 hours): 0.554 ± 0.047
normalized Cell Index (nCI) ([3]; 1.0 mM, 12 hours): 0.616 ± 0.042
normalized Cell Index (nCI) ([3]; 1.0 mM, 24 hours): 0.748 ± 0.061
normalized Cell Index (nCI) ([3]; 1.0 mM, 36 hours): 0.694 ± 0.054
activity of AT III ([4]; 0.06 mM): 113.00 ± 10.13%
activity of AT III ([4]; 0.3 mM): 117.25 ± 5.50%
activity of AT III ([4]; 0.6 mM): 131.75 ± 6.65%
activity of AT III ([4]; 1.5 mM): 136.75 ± 11.32%
Fmax—maximum clotting ([5]; 0.06 mM): 84.78 ± 5.57 %T
Fvo—initial plasma clotting velocity ([5]; 0.06 mM): 108.56 ± 28.63 %T/min
Sc—area under the curve of a stable clot formation ([5]; 0.06 mM): 586.27 ± 95.97 %T x min
Sf—area under the clot formation curve ([5]; 0.06 mM): 102.35 ± 29.66 %T x min
S—overall potential of clot formation ([5]; 0.06 mM): 1628.36 ± 118.58 %T x min
TGt—thrombin generation time ([5]; 0.06 mM): 155.00 ± 20.58 s
Tf—plasma clotting time ([5]; 0.06 mM): 108.30 ± 35.15 s
Fmax—maximum clotting ([5]; 0.3 mM): 82.66 ± 7.51 %T
Fvo—initial plasma clotting velocity ([5]; 0.3 mM): 113.42 ± 23.98 %T/min
Sc—area under the curve of a stable clot formation ([5]; 0.3 mM): 766.41 ± 394.94 %T x min
Sf—area under the clot formation curve ([5]; 0.3 mM): 100.51 ± 28.00 %T x min
S—overall potential of clot formation ([5]; 0.3 mM): 1580.91 ± 150.03 %T x min
TGt—thrombin generation time ([5]; 0.3 mM): 139.60 ± 7.44 s
Tf—plasma clotting time ([5]; 0.3 mM): 108.58 ± 33.64 s
Fmax—maximum clotting ([5]; 0.6 mM): 82.44 ± 5.61 %T
Fvo—initial plasma clotting velocity ([5]; 0.6 mM): 127.78 ± 40.82 %T/min
Sc—area under the curve of a stable clot formation ([5]; 0.6 mM): 560.45 ± 102.47 %T x min
Sf—area under the clot formation curve ([5]; 0.6 mM): 107.67 ± 29.19 %T x min
S—overall potential of clot formation ([5]; 0.6 mM): 1580.02 ± 119.57 %T x min
TGt—thrombin generation time ([5]; 0.6 mM): 158.40 ± 13.03 s
Tf—plasma clotting time ([5]; 0.6 mM): 112.94 ± 35.34 s
Fmax—maximum clotting ([5]; 1.5 mM): 77.50 ± 8.20 %T
Fvo—initial plasma clotting velocity ([5]; 1.5 mM): 135.98 ± 31.06 %T/min
Sc—area under the curve of a stable clot formation ([5]; 1.5 mM): 537.91 ± 99.63 %T x min
Sf—area under the clot formation curve ([5]; 1.5 mM): 83.28 ± 17.34 %T x min
S—overall potential of clot formation ([5]; 1.5 mM): 1494.31 ± 163.29 %T x min
TGt—thrombin generation time ([5]; 1.5 mM): 165.40 ± 28.25 s
Tf—plasma clotting time ([5]; 1.5 mM): 93.42 ± 26.49 s
